Test results: PubChem BioAssay AID248 (DTP/NCI, 2004)
Several values for one entry are separate records, joined by “and”; a condition that tells them apart may be missing. Identical values can stand only once. Toxic doses and inconclusive results are not listed. No stated cut-off is given here; in the data, active means T/C of 150% or more; inactive means T/C below 125%.

System: L1210 leukemia ip in BDF1 mice, survival T/C
Experiment: NCI In Vivo Anticancer Drug Screen. Data for tumor model L1210 Leukemia (intraperitoneal) in B6D2F1 (BDF1) mice
Settings: endpoint: mean survival time, higher = longer survival
Method in brief: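 Each compound was tested against a transplantable tumor grown in mice. The endpoint was survival, with treated animals benchmarked against vehicle controls as a simple ratio.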

Measured: T/C

OC(CBr)C(O)C(O)C(O)CBr (stereo not drawn)
inactive: dose: 15.6 mg/kg/injection, schedule: Q03HX008 (ip), vehicle: carboxymethylcellulose (CMC) 90 % of control | dose: 15.6 mg/kg/injection, schedule: Q03HX024 (ip), vehicle: carboxymethylcellulose (CMC) 91 % of control | dose: 31.2 mg/kg/injection, schedule: Q#A X034 (ip), vehicle: carboxymethylcellulose (CMC) 99 % of control | dose: 31.25 mg/kg/injection, schedule: Q01DX Z (ip), vehicle: carboxymethylcellulose (CMC) 94 % of control | dose: 31.3 mg/kg/injection, schedule: Q03HX008 (ip), vehicle: carboxymethylcellulose (CMC) 96 % of control | dose: 31.3 mg/kg/injection, schedule: Q03HX024 (ip), vehicle: carboxymethylcellulose (CMC) 93 % of control | dose: 62.5 mg/kg/injection, schedule: Q01DX001 (ip), vehicle: carboxymethylcellulose (CMC) 101 % of control | dose: 62.5 mg/kg/injection, schedule: Q01DX009 (ip), vehicle: carboxymethylcellulose (CMC) 104 % of control | dose: 62.5 mg/kg/injection, schedule: Q01DX017 (ip), vehicle: carboxymethylcellulose (CMC) 98 % of control | dose: 62.5 mg/kg/injection, schedule: Q03HX008 (ip), vehicle: carboxymethylcellulose (CMC) 97 % of control and 98 % of control | dose: 62.5 mg/kg/injection, schedule: Q03HX024 (ip), vehicle: carboxymethylcellulose (CMC) 87 % of control | dose: 62.5 mg/kg/injection, schedule: Q#A X034 (ip), vehicle: carboxymethylcellulose (CMC) 95 % of control | dose: 63.0 mg/kg/injection, schedule: Q01DX Z (ip), vehicle: carboxymethylcellulose (CMC) 103 % of control and 94 % of control | dose: 71.0 mg/kg/injection, schedule: Q01DX009 (oral), vehicle: carboxymethylcellulose (CMC) 97 % of control | dose: 100.0 mg/kg/injection, schedule: Q01DX001 (ip), vehicle: saline 98 % of control | dose: 100.0 mg/kg/injection, schedule: Q01DX009 (ip), vehicle: other 103 % of control | dose: 106.0 mg/kg/injection, schedule: Q01DX009 (ip), vehicle: saline 100 % of control | dose: 107.0 mg/kg/injection, schedule: Q## X006 (oral), vehicle: carboxymethylcellulose (CMC) 94 % of control | dose: 120.0 mg/kg/injection, schedule: Q01DX001 (ip), vehicle: carboxymethylcellulose (CMC) 97 % of control | dose: 125.0 mg/kg/injection, schedule: Q01DX001 (ip), vehicle: carboxymethylcellulose (CMC) 95 % of control and 92 % of control | dose: 125.0 mg/kg/injection, schedule: Q01DX009 (ip), vehicle: carboxymethylcellulose (CMC) 104 % of control | dose: 125.0 mg/kg/injection, schedule: Q01DX015 (ip), vehicle: saline 102 % of control | dose: 125.0 mg/kg/injection, schedule: Q01DX Z (ip), vehicle: carboxymethylcellulose (CMC) 98 % of control and 92 % of control | dose: 125.0 mg/kg/injection, schedule: Q02DX005 (ip), vehicle: carboxymethylcellulose (CMC) 100 % of control | dose: 125.0 mg/kg/injection, schedule: Q02DX008 (ip), vehicle: carboxymethylcellulose (CMC) 95 % of control | dose: 125.0 mg/kg/injection, schedule: Q03HX008 (ip), vehicle: carboxymethylcellulose (CMC) 98 % of control | dose: 125.0 mg/kg/injection, schedule: Q03HX024 (ip), vehicle: carboxymethylcellulose (CMC) 105 % of control | dose: 125.0 mg/kg/injection, schedule: Q04DX003 (ip), vehicle: carboxymethylcellulose (CMC) 87 % of control | dose: 160.0 mg/kg/injection, schedule: Q01DX009 (ip), vehicle: saline 102 % of control | dose: 160.0 mg/kg/injection, schedule: Q## X006 (oral), vehicle: carboxymethylcellulose (CMC) 95 % of control | dose: 177.0 mg/kg/injection, schedule: Q01DX009 (ip), vehicle: acetone 113 % of control | dose: 200.0 mg/kg/injection, schedule: Q01DX001 (ip), vehicle: other 97 % of control | dose: 200.0 mg/kg/injection, schedule: Q01DX001 (ip), vehicle: saline 96 % of control | dose: 200.0 mg/kg/injection, schedule: Q01DX009 (ip), vehicle: other 105 % of control | dose: 240.0 mg/kg/injection, schedule: Q01DX009 (ip), vehicle: saline 104 % of control | dose: 240.0 mg/kg/injection, schedule: Q## X003 (oral), vehicle: carboxymethylcellulose (CMC) 96 % of control | dose: 250.0 mg/kg/injection, schedule: Q01DX001 (ip), vehicle: carboxymethylcellulose (CMC) 95 % of control and 104 % of control | dose: 250.0 mg/kg/injection, schedule: Q01DX009 (ip), vehicle: carboxymethylcellulose (CMC) 98 % of control | dose: 250.0 mg/kg/injection, schedule: Q01DX015 (ip), vehicle: saline 110 % of control | dose: 250.0 mg/kg/injection, schedule: Q01DX Z (ip), vehicle: carboxymethylcellulose (CMC) 93 % of control and 106 % of control | dose: 250.0 mg/kg/injection, schedule: Q02DX005 (ip), vehicle: carboxymethylcellulose (CMC) 95 % of control | dose: 250.0 mg/kg/injection, schedule: Q04DX003 (ip), vehicle: carboxymethylcellulose (CMC) 97 % of control | dose: 250.0 mg/kg/injection, schedule: Q#A X034 (ip), vehicle: carboxymethylcellulose (CMC) 98 % of control
